# Experimental data published in US20160122723A1, “ENGINEERED THREE-DIMENSIONAL SKIN TISSUES, ARRAYS THEREOF, AND METHODS OF MAKING THE SAME” (ORGANOVO, INC., priority 2014, published 2016).
# Read-outs that look alike come from different tables or passages of the source.
# Tests used:
# Format in all cases: cell-based, human
# [1] = test system: bioprinted full thickness skin tissue; assay: Skin irritation test, LDH activity, 15 minute exposure, 24 well plate format (Example 5)
# Excerpt: Bio-ink was generated by a cellular mixture of 100% primary adult human dermal fibroblasts (HDFa) in 8% gelatin (Novogel® 2.0) in a concentration of 50 million cells per milliliter. The cell: gelatin ratio was altered to further reduce the cellular density of the dermal sheet to better mimic dermal tissue in native skin. Three-dimensional bio-ink constructs were printed by continuous deposition using the Novogen Bioprinter® platform in a 2 mm×2 mm×0.5 mm base sheet to create a dermal structure resembling a sheet. A smaller syringe needle was used to achieve greater resolution at the reduced size. Instead of printing one 0.5 mm sheet with a 500 μm diameter syringe needle, two layers of 0.25 mm sheets printed with a 250 μm diameter needle. One tissue construct was printed per transwell-in a 24 well plate. The transwell printing surface contained a polytetrafluoroethylene (PTFE)-membrane coated with equimolar mixture of types I and III collagen (bovine) with pores 3 μm in-size. […] Cell paste was measured post print at 96.0% viable by trypan exclusion assay. […] IL-1α production (R&D Systems) was analyzed in a colorimetric assays per manufacturer's protocol. Media was analyzed for lactate dehydrogenase as a marker for cytotoxicity. IL-1α production was assessed as a complementary endpoint to classic cytotoxicity testing to improve predictability of irritants. […]
# [2] = test system: bioprinted full thickness skin tissue; assay: Skin irritation test, viability by alamar blue assay, 15 minute exposure, 24 well plate format (Example 5)
# Excerpt: (§1) Bio-ink was generated by a cellular mixture of 100% primary adult human dermal fibroblasts (HDFa) in 8% gelatin (Novogel® 2.0) in a concentration of 50 million cells per milliliter. The cell: gelatin ratio was altered to further reduce the cellular density of the dermal sheet to better mimic dermal tissue in native skin. Three-dimensional bio-ink constructs were printed by continuous deposition using the Novogen Bioprinter® platform in a 2 mm×2 mm×0.5 mm base sheet to create a dermal structure resembling a sheet. A smaller syringe needle was used to achieve greater resolution at the reduced size. Instead of printing one 0.5 mm sheet with a 500 μm diameter syringe needle, two layers of 0.25 mm sheets printed with a 250 μm diameter needle. One tissue construct was printed per transwell-in a 24 well plate. The transwell printing surface contained a polytetrafluoroethylene (PTFE)-membrane coated with equimolar mixture of types I and III collagen (bovine) with pores 3 μm in-size. Epidermal cell paste containing a mixture of 100% primary neonatal human epidermal keratinocytes (HEKn) was then printed on top of the dermal bio-ink. Cell paste was measured post print at 96.0% viable by trypan exclusion assay. Cell number in deposited epidermal layer was estimated at 11,000 cells by cell counting on a Cell-O-Meter. Immediately following the print, constructs were placed in 4° C. for 10 minutes. This is a key step to harden the Novogel®, which helps to maintain the printed shape and improve construct to construct uniformity. Cold media was then added to the outer well of the transwell in a volume of 1 ml. The media used for subsequent growth and maintenance of the skin tissue was a 50:50 ratio of HDFa:HEKn media. The initial volume added was sufficient to submerge the structure. […] IL-1α production (R&D Systems) was analyzed in a colorimetric assays per manufacturer's protocol. Media was analyzed for lactate dehydrogenase as a marker for cytotoxicity. IL-1α production was assessed as a complementary endpoint to classic cytotoxicity testing to improve predictability of irritants. […]
# [3] = test system: bioprinted full thickness skin tissue; assay: Skin irritation test, IL-1α production, 15 minute exposure, 24 well plate format (Example 5)
# Excerpt: as §1
# [4] = test system: bioprinted full thickness skin tissue; assay: Skin irritation test, lactate dehydrogenase (LDH) activity in media, 1 hour exposure (Example 4); settings: 1% Triton X 100 for 1 hour, apical; at 1 hour, 24 hours and 48 hours post treatment
# Excerpt: (§2) Bio-ink was generated by a cellular mixture of 100% primary adult human dermal fibroblasts (HDFa) in 8% gelatin (Novogel® 2.0) at a concentration of 100 million cells per milliliter. The cell: gelatin ratio was altered to reduce the cellular density of the dermal sheet to better mimic dermal tissue in native skin. Three-dimensional bio-ink constructs were printed by continuous deposition using the Novogen Bioprinter® platform in a 4 mm×4 mm×0.5 mm base to create a dermal structure resembling a sheet. One tissue construct was printed per transwell in a […]. The transwell printing surface contained a polytetrafluoroethylene (PTFE) membrane coated with equimolar mixture of types I and III collagen (bovine) with pores 3 μm in size. Epidermal cell paste containing a mixture of 100% primary neonatal human epidermal keratinocytes (HEKn) was then printed on top of the dermal bio-ink. Cell paste was measured post print at 87.1% viable by trypan exclusion assay. Cell numbers in the deposited epidermal layer was estimated at 60,000 cells by cell counting on a Cell-O-Meter. […] IL-1α production (R&D Systems) was analyzed in a colorimetric assays per manufacturer's protocol. Media was analyzed for lactate dehydrogenase as a marker for cytotoxicity. IL-1α production was assessed as a complementary endpoint to classic cytotoxicity testing to improve predictability of irritants. […]
# [5] = test system: bioprinted full thickness skin tissue; assay: Skin irritation test, macroscopic and histological analysis (H&E, CK5/IVL, CK10, collagen 3, PCNA, TUNEL) (Example 4); settings: 1% for 1 hour
# Excerpt: (§3) Bio-ink was generated by a cellular mixture of 100% primary adult human dermal fibroblasts (HDFa) in 8% gelatin (Novogel® 2.0) at a concentration of 100 million cells per milliliter. The cell: gelatin ratio was altered to reduce the cellular density of the dermal sheet to better mimic dermal tissue in native skin. Three-dimensional bio-ink constructs were printed by continuous deposition using the Novogen Bioprinter® platform in a 4 mm×4 mm×0.5 mm base to create a dermal structure resembling a sheet. One tissue construct was printed per transwell in a […]. The transwell printing surface contained a polytetrafluoroethylene (PTFE) membrane coated with equimolar mixture of types I and III collagen (bovine) with pores 3 μm in size. Epidermal cell paste containing a mixture of 100% primary neonatal human epidermal keratinocytes (HEKn) was then printed on top of the dermal bio-ink. Cell paste was measured post print at 87.1% viable by trypan exclusion assay. Cell numbers in the deposited epidermal layer was estimated at 60,000 cells by cell counting on a Cell-O-Meter. Immediately following the print, constructs were placed at 4° C. for 10 minutes. Cold media was then added to the outer well of the transwell in a volume of 3 ml. The media used for subsequent growth and maintenance of the skin tissue was a 50:50 ratio of HDFa:HEKn media. The initial volume added was sufficient to submerge the structure. All subsequent media changes used warmed media (37° C.) added to the outer well of the transwell and not to the inner basket. Media was changed 48 hours later and reduced to a volume of 1.5 ml per well to bring the structure to an air-liquid interface (ALI). Media and subsequently changed 48 hours after that (day 4) at a volume of 1.5 ml. On day 5, media was changed and further reduced to 1 ml per well and subsequently changed daily. On day 10, skin tissues were subject to a skin irritation test method using 1% Triton X 100. 1% Triton X-100™ is a known irritant and reference chemical currently used in other 3D skin models. Methods were based on OECD guidelines 439 and 431 for applying human skin models to in vitro skin irritation or corrosion, respectively. On day 10, conditioned media was saved (designated time=0) and 1 ml of fresh media was added to the outer well of the transwell. The printed skin tissue was then treated with 20 μl of PBS as a negative control or with 20 μl of 1% Triton X-100™ as a positive control and known irritant. Test substances were pipetted manually to the apical surface of the tissue. Triton X-100™ was diluted to a 1% aqueous solution in deionized water and sterile filtered through a 20 micron filter before use. Samples were incubated for 30 minutes at 37° C. followed by 30 minutes at room temperature for a total of 60 minutes. Media was saved (designated time=1 hour). Samples were then washed extensively by PBS rinsing. Transwells were then placed in a new 6-well plate with fresh media (1 ml) added to the outer well then placed back into 37° C. overnight. The media was then changed at 24 hours and at 48 hours post treatment. Total media collected included time points=−48, 0, 1, 24, and 48 hours. IL-1α production (R&D Systems) was analyzed in a colorimetric assays per manufacturer's protocol. Media was analyzed for lactate dehydrogenase as a marker for cytotoxicity. IL-1α production was assessed as a complementary endpoint to classic cytotoxicity testing to improve predictability of irritants. Keratinocytes normally produce and release inflammatory cytokine IL-1α in response to chemical or physical stress. At 48 hours post treatment (day 12), tissues were either lysed for RNA extraction and subsequent qPCR analysis, or tested for viability by alamar blue assay then rinsed in PBS and fixed with 2% PFA for histological analysis. Alamar blue (Life Technologies) was added per manufacturer's instructions to media and incubated with tissue constructs (1 ml) at 37° C. for 3 hours. […]
# [6] = test system: bioprinted full thickness skin tissue; assay: Skin irritation test, IL-1α production in media, colorimetric assay, 1 hour exposure (Example 4); settings: 1% for 1 hour
# Excerpt: as §2, with “Cell-O-Meter. Immediately following the print, constructs were placed at 4° C. for 10 minutes. Cold media was then added to the outer well of the transwell in a volume of 3 ml. The media used for subsequent growth and maintenance of the skin tissue was a 50:50 ratio of HDFa:HEKn media. The initial volume added was sufficient to submerge the structure. All subsequent media changes used warmed media (37° C.) added to the outer well of the transwell and not to the inner basket. Media was changed 48 hours later and reduced to a volume of 1.5 ml per well to bring the structure to an air-liquid interface (ALI). Media and subsequently changed 48 hours after that (day 4) at a volume of 1.5 ml.” for “Cell-O-Meter.”
# [7] = test system: bioprinted full thickness skin tissue; assay: Skin irritation test, viability by alamar blue assay, 1 hour exposure (Example 4); settings: 1% for 1 hour; 48 hours post treatment (day 12)
# Excerpt: as §2
# [8] = test system: bioprinted full thickness skin tissue; assay: Skin irritation test, qPCR gene expression analysis (Example 4); settings: 1% for 1 hour
# Excerpt: as §3, with “Test substances were pipetted manually to the apical surface of the tissue. Triton X-100™ was diluted to a 1% aqueous solution in deionized water and sterile filtered through a 20 micron filter before use. Samples were incubated for 30 minutes at 37° C. followed by 30 minutes at room temperature for a total of 60 minutes. Media was saved (designated time=1 hour). Samples were then washed extensively by PBS rinsing. Transwells were then placed in a new 6-well plate with fresh media (1 ml) added to the outer well then placed back into 37° C. overnight. The media was then changed at 24 hours and at 48 hours post treatment. Total media collected included time points=−48, 0, 1, 24, and 48 hours.” left out, “irritants.” for “irritants. Keratinocytes normally produce and release inflammatory cytokine IL-1α in response to chemical or physical stress. At 48 hours post treatment (day 12), tissues were either lysed for RNA extraction and subsequent qPCR analysis, or tested for viability by alamar blue assay then rinsed in PBS and fixed with 2% PFA for histological analysis. Alamar blue (Life Technologies) was added per manufacturer's instructions to media and incubated with tissue constructs (1 ml) at 37° C. for 3 hours.”
compound,measurement,setting,value
CCCCCCCCCCCCOS(=O)(=O)[O-].[Na+] [SDS],LDH activity higher than PBS,[1],about 1.7 fold
same,irritant strength under these testing conditions,[2],much stronger irritant
same,viable compared to the PBS control (alamar blue),[2],2.45%
same,IL-1a production,[3],induced
same,"IL-1a production, response compared between the two irritants",[3],much stronger response
Triton X-100,LDH activity higher than PBS,"[1]; 15 minute exposure, 5% SDS or 1% Triton X, 42 hours post exposure",about 1.4 fold
same,induction in LDH activity compared to PBS control,[4],roughly 2 fold
same,irritancy to bioprinted skin as suggested by histology,[5],irritant
same,CK5 positive basal keratinocyte layer,[5]; 48 hours post treatment,fragmented
same,Collagen 3 staining compared to the PBS control,[5]; 48 hours post treatment,reduction in dermal fibroblast function
same,apoptosis by TUNEL staining in the dermal layer,[5]; 48 hours post treatment,increase in apoptosis
same,histological analysis by H&E,[5]; 48 hours post treatment,separation of the epidermal and dermal layers
same,proliferation by PCNA staining,"[5]; 48 hours post treatment, dermal fibroblasts and basal layer",reduction in proliferation
same,IL-1α levels,[6]; 24 hours post treatment,remained high
same,IL-1α levels,[6]; 48 hours post treatment,returned to baseline
same,IL-1α activity in comparison to PBS control,[6]; greatest difference observed 1 hour post treatment,increased
same,reduction in viability as compared to the PBS control,[7],80%
same,viable compared to the PBS control (alamar blue),"[2]; 15 minute exposure, 5% SDS or 1% Triton X, 42 hours post treatment (day 15)",68.75%
same,IL-1a production,"[3]; 15 minute exposure, 5% SDS or 1% Triton X",induced
same,CK1 and CK10 gene expression,[8]; 48 hours post exposure,reduced
same,"collagen production of types 1, 3, and 4 collagen (gene expression)",[8]; 48 hours post exposure,reduced
same,expression of both epidermal and dermal markers,[8]; 48 hours post exposure,dramatically reduces
same,IL1a gene expression increase in comparison to the PBS control,[8]; 48 hours post treatment,about 3 fold
